Data published in patent US20230227500A1, “NANOPARTICLE-LIKE DELIVERY SYSTEM” (Evox Therapeutics Ltd, priority 2019, published 2023).
Where a SMILES comes first, the peptide text is derived from it. Bridges are numbered along the chain shown (N, C = ends). [ ]: non-standard residue; d: D form. R8 = C=CCCCCCC[C@@](C)(N)C(=O)O; S8 = C=CCCCCCC[C@](C)(N)C(=O)O; S5 = C=CCCC[C@](C)(N)C(=O)O

Columns and labels:
[1] = In vivo delivery and biodistribution of Cy5-labelled SSO, IVIS imaging of dissected tissues; parameters: species or system NMRI mice; conditions: 2.5 mg/kg SSO, MR10, i.v., 48 h, FIG. 2(B)
Method: In order to investigate the in vivo delivery capacity and biodistribution profile of the peptide/SSO nanoparticles, Oct2815 peptide was formulated at a dose of 50 μg (2.5 mg/kg) of Cy5-labelled 2′-OMe/LNA mixmer-based SSO (at MR10) and then injected intravenously into NMRI mice. After 48 h of treatment, the fluorescence values were measured from the dissected tissues (brain, liver, lungs, heart, G.I. tract, spleen, muscles and kidneys) of the animals with an IVIS in vivo imager.

[2] = system: mice; test: Tolerability of peptide/mRNA formulation after intravenous injection; assay type: in vivo; conditions: 6.25 mg/kg of mRNA/25 mg/kg of peptide, i.v.
Method: Delivery of mRNA was tested using the 246, Oct815 and Oct2815 peptides and a luciferase-encoding mRNA (Luc mRNA). Various peptides were formulated at 1.25 mg/kg of mRNA dosing, at a peptide-to-mRNA weight ratio 4. Oct2815 was also formulated at 6.25 mg/kg of mRNA dosing, at a peptide-to-mRNA weight ratio 4. The formulations were subsequently injected intravenously into NMRI mice. After 24 h of treatment, the mice were sacrificed and the lungs, heart, liver, spleen and kidneys dissected. Luciferase activity was measured in the dissected tissues by bioluminescence imaging on an IVIS in vivo imaging system.
The peptides of the invention are believed to be tolerated in a dose of up to 30 mg/kg in mice, which is at least 10-fold higher than the dose commonly known to be tolerated when using any CPP of the prior art in vivo.

[3] = system: HeLa pluc705 cells; test: HeLa pluc705 splice correction reporter, delivery of SSOs; assay type: cell-based; conditions: 100 nM 2'OMe SSO, 24 h, MR3-MR10, FIG. 1B
Description: To evaluate the ability of peptides of the invention to effectively deliver SSOs into cells, the HeLa pluc705 splice correction reporter system was used as a model (FIG. 1A). In this assay, HeLa cells are stably transfected with a luciferase endocing sequence that is interrupted by the β-globin pre-mRNA carrying a crypting splice site. If the SSO is effectively delivered to the cells and reaches the cell nucleus, it masks the aberrant splicing site (depicted ON-705 on the right-hand side of FIG. 1A). By redirecting the splicing, it will give rise to the production of functional luciferase protein. The luciferase enzyme activity thus acts as a measure to assess the delivery efficacy of the SSOs. This model is known for being an excellent positive read-out system with wide dynamic range for evaluating and comparing the delivery of SSOs and different delivery vectors.
The peptides were formulated with 2′-O-methyl phosphorothioate (2′OMe)-based SSOs at different peptide-to-SSO molar ratios (MRs), namely MR3, MR5, MR7 and MR10. The HeLa pluc705 cells were treated with various peptide/SSO nanoformulations at 100 nM SSO concentration for 24 h. After this time, the luciferase activity was measured. Delivery efficacy was expressed as a fold-increase over the values from untreated (UT) cells (ie. fold increase in splice correction).

[4] = system: HEK293T Stop-Light cells; test: Cas9 RNP delivery, stop-light reporter gene editing (eGFP by FACS); assay type: cell-based; conditions: FIG. 5B
Description: Delivery of proteins is another important modality for the peptides of the present invention. In order to investigate the ability of the peptides to deliver protein, a stop-light reporter system was employed. FIG. 5A illustrates the stop-light reporter system, which is a quick and simple system to evaluate indel formation in stably transduced cells. Cells are transfected with a construct containing an mCherry gene followed by two enhanced green fluorescent protein (eGFP) genes that are shifted out of frame by +1 and +2 nucleotides, respectively. The mCherry gene is constituently expressed, while the eGFP genes are only expressed if a double stranded break in the linker creates insertions or deletions of +/−1 or 2 bp. This occurs upon the effective delivery of Cas9 RNP system to the nucleus of cells, which leads to one of the two eGFP genes being in frame and thus expressed. […]
5k HEK293T Stop-Light cells were treated with 50 ng ([…]) Cas9 that was formulated with various peptides at different peptide-to-Cas9 RNP MRs (50:1-100:1). After 72 h of treatment, eGFP expression was analysed by fluorescence-activated cell sorting (FACS) analysis. Gene editing efficiency was calculated as a percentage of cells in the cell population where eGFP expression was induced by the treatment.

[5] = system: HEK293T Stop-Light cells; test: Effect of additives on Cas9 RNP delivery, stop-light reporter; assay type: cell-based; conditions: FIG. 11
Method: In order to investigate the effect of additives on the efficacy of the peptides/nanoparticles of the invention a range of different additives were tested and the effect on delivery of Cas9 ribonuncleoprotein (RNP) was examined using the same stop-light reporter system described above and illustrated in FIG. 5.
Peptides Oct215 or Oct2815 were tested. Cas9 RNP was formulated in HBG buffer (HEPES buffered glucose) with either glycerol, PEG, PVP10, PVP55, PVA18, PVA40 or PVA-PEG. Oct215 or 2815 was added and incubated at room temperature for 40 min to allow peptide nanoparticles to form (1.1:1 sgRNA to Cas9 and 1:150 RNP:CPP).
Following incubation HEK293T Stop-Light cells were treated with the peptide RNP complex (25 ng Cas9 added to each well). After 72 h of treatment, eGFP expression was analysed by fluorescence-activated cell sorting (FACS) analysis. Gene editing efficiency was calculated as the percentage of eGFP expressing cells in the viable mCherry expressing population, mCherry being the marker for reporter construct expression and eGFP for gene editing of said construct.

C=CCCCCCC[C@@](C)(NC(=O)[C@H](C)NC(=O)[C@H](CCCCN)NC(=O)[C@H](C)NC(=O)[C@H](CC(C)C)NC(=O)[C@H](CCCCN)NC(=O)[C@@](C)(CCCCCCC=C)NC(=O)[C@@H](N)CC(C)C)C(=O)N[C@@H](C)C(=O)N[C@@H](CCCCN)C(=O)N[C@@H](CC(C)C)C(=O)N[C@@H](CC(C)C)C(=O)N[C@@H](CCCCN)C(=O)N[C@@H](C)C(=O)N[C@@](C)(CCCCCCC=C)C(=O)N[C@@H](C)C(=O)N[C@@H](CCCCN)C(=O)N[C@@H](C)C(=O)N[C@@H](CC(C)C)C(N)=O [Oct2815, H-L A(R8) K L A K A A(R8) A K L L K A A(S8) A K A L-NH2] (H-L[R8]KLAKA[R8]AKLLKA[S8]AKAL-NH2)
accumulation of SSO in liver in comparison with SSO alone (fold enrichment) [1]: 2.5 fold | accumulation of SSO in lungs in comparison with SSO alone (fold enrichment) [1]: 3.5 fold | accumulation of SSO in spleen in comparison with SSO alone (fold enrichment) [1]: 5 fold | side-effects at very high dosing [2]: without any apparent side-effects

H-L A K L A K A A(R8) A K L L K A A(S5) A K A L-NH2 (H-LAKLAKA[R8]AKLLKA[S5]AKAL-NH2; staple 8-15; SMILES CC(C)C[C@H](NC(=O)[C@H](C)NC(=O)[C@H](CCCCN)NC(=O)[C@H](C)NC(=O)[C@]1(C)CCCC=CCCCCCC[C@@](C)(NC(=O)[C@H](C)NC(=O)[C@H](CCCCN)NC(=O)[C@H](C)NC(=O)[C@H](CC(C)C)NC(=O)[C@H](CCCCN)NC(=O)[C@H](C)NC(=O)[C@@H](N)CC(C)C)C(=O)N[C@@H](C)C(=O)N[C@@H](CCCCN)C(=O)N[C@@H](CC(C)C)C(=O)N[C@@H](CC(C)C)C(=O)N[C@@H](CCCCN)C(=O)N[C@@H](C)C(=O)N1)C(N)=O) [compound 246]
SSO delivery and splice switching activity (fold increase in splice correction, luciferase activity) [3]: able to mediate effective SSO delivery and induce strong splice switching activity

H-L A K L A K A A(R8) A K L L K A A(S8) A K A L-NH2 (H-LAKLAKA[R8]AKLLKA[S8]AKAL-NH2; staple 8-15; SMILES CC(C)C[C@H](NC(=O)[C@H](C)NC(=O)[C@H](CCCCN)NC(=O)[C@H](C)NC(=O)[C@]1(C)CCCCCCC=CCCCCCC[C@@](C)(NC(=O)[C@H](C)NC(=O)[C@H](CCCCN)NC(=O)[C@H](C)NC(=O)[C@H](CC(C)C)NC(=O)[C@H](CCCCN)NC(=O)[C@H](C)NC(=O)[C@@H](N)CC(C)C)C(=O)N[C@@H](C)C(=O)N[C@@H](CCCCN)C(=O)N[C@@H](CC(C)C)C(=O)N[C@@H](CC(C)C)C(=O)N[C@@H](CCCCN)C(=O)N[C@@H](C)C(=O)N1)C(N)=O) [Oct815]
SSO delivery and splice switching activity (fold increase in splice correction, luciferase activity) [3]: able to mediate effective SSO delivery and induce strong splice switching activity | relative potency among peptides (Cas9 RNP gene editing) [4]: most potent

H-L A(R8) K L A K A A A K L L K A A(S8) A K A L-NH2 (H-L[R8]KLAKAAAKLLKA[S8]AKAL-NH2; staple 2-15; SMILES CC(C)C[C@H](NC(=O)[C@H](C)NC(=O)[C@H](CCCCN)NC(=O)[C@H](C)NC(=O)[C@]1(C)CCCCCCC=CCCCCCC[C@@](C)(NC(=O)[C@@H](N)CC(C)C)C(=O)N[C@@H](CCCCN)C(=O)N[C@@H](CC(C)C)C(=O)N[C@@H](C)C(=O)N[C@@H](CCCCN)C(=O)N[C@@H](C)C(=O)N[C@@H](C)C(=O)N[C@@H](C)C(=O)N[C@@H](CCCCN)C(=O)N[C@@H](CC(C)C)C(=O)N[C@@H](CC(C)C)C(=O)N[C@@H](CCCCN)C(=O)N[C@@H](C)C(=O)N1)C(N)=O) [Oct215]
gene editing efficiency (efficacy of cargo delivery) with PVA-PEG ([5]; 25 ng Cas9, 1:150 RNP:CPP, HBG buffer with PVA-PEG, 72 h): up to 60% | effect of additives on efficacy [5]: enhanced still further by the presence of different additives
